Source: US5354772A, “Indole analogs of mevalonolactone and derivatives thereof” (Sandoz Pharm. Corp., priority 1993, dated 1994)
Where two headings read alike, the source gives them in different places.

Experiments:
HMG-CoA reductase = target: T1, HMG-CoA reductase (Rattus norvegicus, UniProt P51639); assay: Test A. In Vitro Microsomal Assay of HMG-CoA Reductase Inhibition; format: biochemical; conditions: rat liver microsomes, male Sprague-Dawley rats; read-out: IC50 (50% inhibition of HMG-CoA reductase activity)
T1 construct: the microsomes are the source of the HMG-CoA reductase enzyme; from tissue; host or cells: liver microsomes, male Sprague-Dawley rats (150-225 g)
T1 sequence (P51639 1-887): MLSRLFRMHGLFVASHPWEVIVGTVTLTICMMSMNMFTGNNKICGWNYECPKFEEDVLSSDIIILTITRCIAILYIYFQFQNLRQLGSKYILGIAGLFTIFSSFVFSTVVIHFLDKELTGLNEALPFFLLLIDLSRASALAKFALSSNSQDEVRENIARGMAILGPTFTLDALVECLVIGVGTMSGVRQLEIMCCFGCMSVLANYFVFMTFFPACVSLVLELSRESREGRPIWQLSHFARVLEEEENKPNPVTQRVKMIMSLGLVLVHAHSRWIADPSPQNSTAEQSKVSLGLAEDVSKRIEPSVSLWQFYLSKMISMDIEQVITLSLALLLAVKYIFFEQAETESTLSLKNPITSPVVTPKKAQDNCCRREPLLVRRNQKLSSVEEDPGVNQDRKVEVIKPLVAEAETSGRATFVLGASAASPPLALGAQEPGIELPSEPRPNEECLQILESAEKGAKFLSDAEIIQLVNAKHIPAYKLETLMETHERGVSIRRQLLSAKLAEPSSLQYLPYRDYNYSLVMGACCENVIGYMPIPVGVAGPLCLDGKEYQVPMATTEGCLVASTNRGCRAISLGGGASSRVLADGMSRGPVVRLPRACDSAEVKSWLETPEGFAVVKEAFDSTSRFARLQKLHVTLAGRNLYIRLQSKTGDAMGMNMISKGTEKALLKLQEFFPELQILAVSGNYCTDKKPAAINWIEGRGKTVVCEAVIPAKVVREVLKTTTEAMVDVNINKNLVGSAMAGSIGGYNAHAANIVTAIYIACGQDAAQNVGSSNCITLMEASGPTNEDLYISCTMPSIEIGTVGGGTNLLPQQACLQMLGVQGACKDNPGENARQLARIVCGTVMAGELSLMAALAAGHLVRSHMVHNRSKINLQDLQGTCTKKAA
Method: Test A. In Vitro Microsomal Assay of HMG-CoA Reductase Inhibition:
200 μl. aliquots (1.08-1.50 mg./ml.) of rat liver microsomal suspensions, freshly prepared from male Sprague-Dawley rats (150-225 g. body weight), in Buffer A with 10 mmol. dithiothreitol are incubated with 10 μl. of a solution of the test substance in dimethylacetamide and assayed for HMG-CoA reductase activity as described in Ackerman et al., J. Lipid Res. 18, 408-413 (1977). In the assay the microsomes are the source of the HMG-CoA reductase enzyme which catalyzes the reduction of HMG-CoA to mevalonate. The assay employs a chloroform extraction to separate the product, [^14 C]mevalonolactone, formed by the HMG-CoA reductase reaction from the substrate, [^14 C]HMG-CoA. [^3 H]mevalonolactoneis added as an internal reference. Inhibition of HMG-CoA reductase is calculated from the decrease in specific activity [^14 C/^3 H]mevalonate) of test groups compared to controls.
IC50 is the concentration of the test substance in the assay system
calculated to produce a 50% inhibition of HMG-CoA reductase activity (Test
A) or sterol biosynthesis (Test B) .

sterol synthesis = assay: Test C. In Vivo Cholesterol Biosynthesis Inhibition Test; design: species or system rat; conditions: for ED50: Rattus norvegicus, read-out: ED50 (inhibition of sterol synthesis)
From the text: Test C. In Vivo Cholesterol Biosynthesis Inhibition Test In vivo studies utilize male Wistar Royal Hart rats weighing 150±20 g. which have been kept for 7-10 days on an altered light cycle (6:30 A.M.-6:30 P.M. dark) housed two per cage and fed powdered Purina Rat Chow and water ad libitum. […] Controls receive vehicle alone. […] Two hours after mid-dark, blood samples are obtained under sodium hexobarbitol anesthesia and the serum separated by centrifugation. […] Inhibition of sterol synthesis is calculated from the reduction in the nCi of sterols formed from test groups compared to controls.

[1] = system: Fu5AH rat hepatoma cell line; assay: Test B. In Vitro Cell Culture Cholesterol Biosynthesis Screen; format: cell-based; conditions: Fu5AH cells, 3 hours; for IC50: [14C]acetate incorporation, read-out: IC50 (50% inhibition of sterol biosynthesis)
Method: The cell culture is prepared as follows: Stock monolayer cultures of the Fu5AH rat hepatoma cell line (originally obtained from G. Rothblat; see Rothblat, Lipids 9, 526-535 (1974)) are routinely maintained in Eagle's Minimum Essential Medium (EMEM) supplemented with 10% fetal bovine serum (FBS) in 75 cm.^2 tissue culture flasks. For these studies, when the cultures reach confluence, they are removed by mild enzymatic treatment with 0.25% trypsin in Hanks' balanced salt solution (without calcium and magnesium). After centrifugation of the cell suspension and aspiration of the enzymatic solution, the cell pellet is resuspended in an appropriate volume of media for seeding into 60 mm. tissue culture dishes. The cultures are incubated at 37° C. in an atmosphere of high humidity and 5% carbon dioxide. When the cultures are confluent (approximately 5 days), they are ready for use. The culture media is aspirated from the dishes and replaced with 3 ml. of EMEM supplemented with 5 mg./ml. of delipidized serum protein (DLSP) prepared by the method of Rothblat et al., In Vitro 12, 554-557 (1976). […] Enhanced 3-hydroxy-3-methylglutaryl Coenzyme A reductase (HMG-CoA reductase) activity is measurable in the cells in response to the lack of exogenous sterol. Following approximately 24 hours incubation at 37° C. in the DLSP supplemented media, the assay is initiated by the addition of 3 μCi of [^14 C]acetate and the test substance solubilized in dimethylsulfoxide (DMSO) or distilled water. Solvent controls and compactin-treated controls are always prepared. Triplicate 60 mm. tissue culture dishes are run for each group. After 3 hours incubation at 37° C., the cultures are examined microscopically using an inverted phase contrast microscope. Notations are made of any morphological changes which may have occurred in the cultures. The media is aspirated and the cell layer is gently washed twice with 0.9% sodium chloride solution (saline). The cell layer is then harvested in 3 ml. of 0.9% saline by gentle scraping with a rubber policeman and transferred to a clean glass tube with Teflon lined cap. The dishes are rinsed with 3 ml. of 0.9% saline and rescraped, and the cells are combined with the first harvest. The tubes are centrifuged at 1500 r.p.m. for 10 minutes in an IEC PR-J centrifuge, and the supernatant is aspirated.
The cells are then extracted as follows: One ml. of 100% ethanol is added to the cell pellet followed by sonication for 10 seconds with a "LO" setting of 50 on a Bronwell Biosonik IV. One hundred μl. are taken for protein determination. One ml. of 15% potassium hydroxide (KOH) is added, and the samples are thoroughly vortexed. Saponification is accomplished by heating the ethanol-KOH treated samples at 60° C. for 60 minutes in a water bath. Following dilution of the samples with 2 ml. of distilled water, they are extracted three times with 7 ml. of petroleum ether. The petroleum ether extracts are then washed three times with 2 ml. of distilled water and finally taken to dryness under a stream of nitrogen.
The obtained samples are then analyzed by thin layer chromatography (TLC) as follows: Residues from the petroleum ether extraction are taken up in a small volume of hexane and spotted on silica gel 60 TLC plates (E. Merck). Development of the plates is carried out in a three phase solvent system consisting of 150 parts by volume hexane: 50 parts by volume diethyl ether: 5 parts by volume glacial acetic acid.
Visualization is accomplished in an iodine vapor chamber. The plates are divided into five sections such that each section contains the molecules having the following approximate Rf values: section 1- 0-0.4, section 2- 0.4-0.55, section 3- 0.55-0.7, section 4- 0.7-0.9 and section 5- 0.9-1.0. Section 2 contains the non-saponifiable sterols. The five sections of the TLC plates are scraped into scintillation vials.

[2] = male Wistar Royal Hart rats, serum [14C] sterols

SMILES | IC50 (HMG-CoA reductase) [µM] | IC50 [1] [µM] | ED50 (sterol synthesis; [2]) [mg/kg] | further results
Cn1c(/C=C/[C@H](O)C[C@@H](O)CC(=O)O)c(-c2ccc(F)cc2)c2cccc(OCc3ccccc3)c21 (relative stereo) [Example 54] | 464 | – | – | –
CC(C)n1c(/C=C/[C@H](O)C[C@@H](O)CC(=O)O)c(-c2ccc(F)cc2)c2ccccc21 (relative stereo) [Example 9, Sodium threo-(±)-(E)-3,5-dihydroxy-7-[3'-(4"-fluorophenyl)-1'-(1"-methylethyl)indol-2'-yl]hept-6-enoate] | – | 0.22 | – | ED50 (sterol synthesis): 1.4 mg/kg
CCOC(=O)CC(O)CC(O)/C=C/c1c(-c2ccc(F)cc2)c2ccc(OCc3ccccc3)cc2n1C (stereo not drawn) [Example 21] | – | 0.2 | 12.1 | –
CCC(C)C(=O)OC1CC(C)C=C2C=CC(C)C(CCC3CC(O)CC(=O)O3)C21 (stereo not drawn) [Mevinolin, reference compound] | – | – | – | ED50 (sterol synthesis): 0.41 mg/kg
Cn1c(/C=C/[C@@H]2C[C@@H](O)CC(=O)O2)c(-c2ccc(F)cc2)c2ccccc21 [Example 10, (E)-Trans-6S-[2'-[3"-(4'"-fluorophenyl)-1"-methylindol-2"-yl]ethenyl]-4R-hydroxy-3,4,5,6-tetrahydro-2H-pyran-2-one] | 1.7 | 0.42 | – | percentage change of sterol synthesis (sterol synthesis; at 4 mg./kg., male Wistar Royal Hart rats): -47%
Cn1c(/C=C/[C@H]2C[C@@H](O)CC(=O)O2)c(-c2ccc(F)cc2)c2cccc(OCc3ccccc3)c21 (relative stereo) [Example 102] | > 1000 | – | – | –
Cn1c(/C=C/C2CC(O)CC(=O)O2)c(-c2ccc(F)cc2)c2ccccc21 (stereo not drawn) [Example 3, (E)-6-[2'-[3"-(4'"-Fluorophenyl)-1"-methylindol-2"-yl]ethenyl]-4-hydroxy-3,4,5,6-tetrahydro-2H-pyran-2-one] | 1.66 | 0.8 | > 10 | –
Cn1c(/C=C\[C@@H]2C[C@@H](O)CC(=O)O2)c(-c2ccc(F)cc2)c2ccccc21 [Example 12, (Z)-Trans-6S-[2'-[3"-(4'"-fluorophenyl)-1"-methylindol-2"-yl]ethenyl]-4R-hydroxy-3,4,5,6-tetrahydro-2H-pyran-2-one] | 9.1 | – | – | inhibition at 1 µM ([1]; at 1 μmolar, read-out: percentage change (%Δ) of sterol biosynthesis): 16%
Cc1cc(C)c2c(-c3ccc(F)cc3)c(/C=C/[C@@H](O)C[C@@H](O)CC(=O)O)n(C(C)C)c2c1 (relative stereo) [Example 64] | 0.012 | 0.03 | 0.66 | –
CCOC(=O)CC(O)CC(O)/C=C/c1c(-c2ccc(F)cc2)c2ccccc2n1CC (stereo not drawn) [Example 60] | 0.12 | – | 0.87 | –
CCn1c(/C=C/[C@H]2C[C@@H](O)CC(=O)O2)c(-c2ccc(F)cc2)c2ccccc21 (relative stereo) [Example 111] | – | 0.19 | – | –
Cc1cc(-c2c(/C=C/[C@H]3C[C@@H](O)CC(=O)O3)n(C(C)C)c3ccccc23)ccc1F (relative stereo) [Example 113] | 0.03 | – | 0.51 | –
Cc1c(/C=C/[C@@H]2C[C@@H](O)CC(=O)O2)n(-c2ccccc2)c2ccccc12 (relative stereo) [Example 142] | 1.3 | 1.5 | 6.1 | –
CC(C)n1c(/C=C/[C@@H](O)C[C@@H](O)CC(=O)O)c(-c2ccc(F)cc2)c2ccccc21 (relative stereo) [Example 8, Sodium erythro-(±)-(E)-3,5-dihydroxy-7-[3'-(4"-fluorophenyl)-1'-(1"-methylethyl)indol-2'-yl]hept-6-enoate] | – | 0.05 | – | ED50 (sterol synthesis): 0.09 mg/kg
Cn1c(/C=C/C(O)CC(O)CC(=O)O)c(-c2ccc(F)cc2)c2ccc(OCc3ccccc3)cc21 (stereo not drawn) [Example 23] | 0.09 | 0.6 | – | –
CCOC(=O)CC(O)CC(O)/C=C/c1c(-c2ccc(F)cc2)c2cc(Cl)ccc2n1C (stereo not drawn) [Example 43] | 9.6 | 0.74 | – | –
CCOC(=O)CC(O)CC(O)/C=C/c1c(C)c2ccccc2n1-c1ccccc1 (stereo not drawn) [Example 132] | 1.62 | – | – | percentage change of sterol synthesis (sterol synthesis; at 10 mg./kg., male Wistar Royal Hart rats): -35%; inhibition at 10 µM ([1]; at 10 μmolar, read-out: percentage change (%Δ) of sterol biosynthesis): 71%
COC(=O)CC(O)CC(O)/C=C/c1c(-c2ccc(F)cc2)c2ccccc2n1C (stereo not drawn) [Example 1, Methyl (E)-3,5-dihydroxy-7-[3'-(4"-fluorophenyl)-1'-methylindol-2'-yl]hept-6-enoate] | 1.7 | 0.8 | 6.2 | –
CC[C@H](C)C(=O)O[C@H]1CCC=C2C=C[C@H](C)[C@H](CC[C@@H]3C[C@@H](O)CC(=O)O3)[C@H]21 [Compactin, reference compound] | 0.77 | 0.06 | 3.5 | –
CCOC(=O)CC(O)CC(O)/C=C/c1c(-c2ccc(F)cc2)c2ccc(OCc3ccccc3)cc2n1C(C)C (stereo not drawn) [Example 75] | 0.0054 | – | – | –
Cc1cc(C)cc(-c2c(/C=C/[C@@H](O)C[C@@H](O)CC(=O)O)n(C(C)C)c3ccccc23)c1 (relative stereo) [Example 14D, Sodium erythro-(±)-(E)-3,5-dihydroxy-7-[3'-(3",5"-dimethylphenyl)-1'-(1"-methylethyl)indol-2'-yl]hept-6-enoate] | 0.005 | – | 0.16 | –
Cn1c(CC[C@@H]2C[C@@H](O)CC(=O)O2)c(-c2ccc(F)cc2)c2ccccc21 (relative stereo) [Example 89] | 9.3 | – | – | –
Cn1c(/C=C/[C@@H]2C[C@@H](O)CC(=O)O2)c(-c2ccc(F)cc2)c2ccccc21 (relative stereo) [Example 4 (a), (E)-Trans-6-[2'-[3"-(4'"-fluorophenyl)-1"-methylindol-2"-yl]ethenyl]-4-hydroxy-3,4,5,6-tetrahydro-2H-pyran-2-one] | 3 | 0.62 | 7 | –
